The values that follow come from patent US20030004172A1, “Fused pyrimidinone matrix metalloproteinase inhibitors” (priority 2001, published 2003).

The IC50 is the concentration that gives 50% inhibition.

Where only a bound is given, the exact number is not on record here.

In the assay the target is MMP-13CD (catalytic domain of collagenase-3) (Homo sapiens, UniProt P45452). Kind of assay: Thiopeptolide substrate hydrolysis inhibition assay, MMP-13CD. Format: biochemical. As to conditions: Table I; thiopeptolide substrate, HEPES pH 7.0, 22° C.; read-out: MMP-13CD IC50. The text has this: Thiopeptolide substrates show virtually no decomposition or hydrolysis at or below neutral pH in the absence of a matrix metalloproteinase enzyme.
Take `COC(=O)c1ccc(Cn2c(=O)c3cc(C(=O)NCc4cccc(OC)c4)sc3n(C)c2=O)cc1OC` [Example 240, 2-Methoxy-4-[6-(3-methoxy-benzylcarbamoyl)-1-methyl-2,4-dioxo-1,4-dihydro-2H-thieno[2,3-d]pyrimidin-3-ylmethyl]-benzoic acid methyl ester]: the IC50 came out at 180 nM.
As for `Cn1c(=O)n(Cc2ccccc2)c(=O)c2cc(C(=O)NCc3ccc(F)c(Cl)c3)sc21` [Example 328, 3-Benzyl-1-methyl-2,4-dioxo-1,2,3,4-tetrahydro-thieno[2,3-d]pyrimidine-6-carboxylic acid 3-chloro-4-fluoro-benzylamide], the figure is 2700 nM; as for `Cn1c(=O)n(Cc2ccccc2)c(=O)c2cc(C(=O)OCc3ccc(F)cc3)sc21` [Example 153, 3-Benzyl-1-methyl-2,4-dioxo-1,2,3,4-tetrahydro-thieno[2,3-d]pyrimidine-6-carboxylic acid 4-fluoro-benzyl ester], 4 nM.
As for `COc1ccc(CNC(=O)c2cc3c(=O)n(Cc4ccc(C(=O)O)cc4)c(=O)n(C)c3s2)cc1` [Example 52, 4-[6-(4-Methoxy-benzylcarbamoyl)-1-methyl-2,4-dioxo-1,4-dihydro-2H-thieno[2,3-d]pyrimidin-3-ylmethyl]-benzoic acid], the figure is 3.95 nM; as for `COc1cccc(CNC(=O)c2cc3c(=O)n(Cc4ccc(C(=O)OCOC(=O)C(C)(C)C)cc4)c(=O)n(C)c3s2)c1` [Example 89, 4-[6-(3-Methoxy-benzylcarbamoyl)-1-methyl-2,4-dioxo-1,4-dihydro-2H-thieno[2,3-d]pyrimidin-3-ylmethyl]-benzoic acid 2,2-dimethyl-propionyloxymethyl ester], 113 nM.
Consider `Cn1c(=O)n(Cc2cccnc2)c(=O)c2cc(C(=O)OCc3ccccc3)sc21` [Example 125, 1-Methyl-2,4-dioxo-3-pyridin-3-ylmethyl-1,2,3,4-tetrahydro-thieno[2,3-d]pyrimidine-6-carboxylic acid benzyl ester], for which the IC50 was 90 nM.
Consider `COc1cccc(COC(=O)c2cc3c(=O)n(Cc4ccccc4)c(=O)n(C)c3s2)c1` [Example 193, 3-Benzyl-1-methyl-2,4-dioxo-1,2,3,4-tetrahydro-thieno[2,3-d]pyrimidine-6-carboxylic acid 3-methoxy-benzyl ester], for which the IC50 came to 3.4 nM.
As for `Cn1c(=O)n(Cc2ccccc2)c(=O)c2cc(C(=O)OCCN3CCCC3)sc21` [Example 175, 3-Benzyl-1-methyl-2,4-dioxo-1,2,3,4-tetrahydro-thieno[2,3-d]pyrimidine-6-carboxylic acid 2-pyrrolidin-1-yl-ethyl ester], the figure is > 100000 nM; as for `COC(=O)c1ccc(Cn2c(=O)c3cc(C(=O)NCc4ccc(OC)cc4)sc3n(C)c2=O)cc1` [Example 239, 4-[6-(4-Methoxy-benzylcarbamoyl)-1-methyl-2,4-dioxo-1,4-dihydro-2H-thieno[2,3-d]pyrimidin-3-ylmethyl]-benzoic acid methyl ester], 58.5 nM; as for `Cn1c(=O)n(Cc2ccc3c(c2)OCO3)c(=O)c2cc(C(=O)OCc3ccccc3)sc21` [Example 307, 3-1,3-Benzodioxol-5-ylmethyl-1-methyl-2,4-dioxo-1,2,3,4-tetrahydro-thieno[2,3-d]pyrimidine-6-carboxylic acid benzyl ester], 5.2 nM.
For `Cn1c(=O)n(Cc2ccccc2)c(=O)c2cc(C(=O)OCc3c(Cl)cccc3Cl)sc21` [Example 149, 3-Benzyl-1-methyl-2,4-dioxo-1,2,3,4-tetrahydro-thieno[2,3-d]pyrimidine-6-carboxylic acid 2,6-dichloro-benzyl ester] the value was 15000 nM.
For `COc1cccc(CNC(=O)c2cc3c(=O)n(CC4CCC(C(=O)O)CC4)c(=O)n(C)c3s2)c1` (stereo not drawn) [Example 90, 4-[6-(3-Methoxy-benzylcarbamoyl)-1-methyl-2,4-dioxo-1,4-dihydro-2H-thieno[2,3-d]pyrimidin-3-ylmethyl]-cyclohexanecarboxylic acid] the value was 5.43 nM; for `Cn1c(=O)n(Cc2ccccc2)c(=O)c2cc(C(=O)NCc3cccnc3)sc21` [Example 339, 3-Benzyl-1-methyl-2,4-dioxo-1,2,3,4-tetrahydro-thieno[2,3-d]pyrimidine-6-carboxylic acid (pyridin-3-ylmethyl)-amide], 380 nM.
`Cn1c(=O)n(Cc2ccccc2)c(=O)c2cc(C(=O)OCCCc3ccccc3)sc21` [Example 181, 3-Benzyl-1-methyl-2,4-dioxo-1,2,3,4-tetrahydro-thieno[2,3-d]pyrimidine-6-carboxylic acid 3-phenyl-propyl ester]: the half-maximal inhibitory concentration (IC50) was > 100000 nM.
`Cn1c(=O)n(Cc2ccccc2)c(=O)c2cc(C(=O)OCc3cccc(Cl)c3)sc21` [Example 200, 3-Benzyl-1-methyl-2,4-dioxo-1,2,3,4-tetrahydro-thieno[2,3-d]pyrimidine-6-carboxylic acid 3-chloro-benzyl ester]: the IC50 was 67 nM.
For `COc1cccc(Cn2c(=O)c3cc(C(=O)OCc4ccccc4)sc3n(C)c2=O)c1` [Example 98, 3-(3-Methoxy-benzyl)-1-methyl-2,4-dioxo-1,2,3,4-tetrahydro-thieno[2,3-d]pyrimidine-6-carboxylic acid benzyl ester] the value was 63 nM; for `COc1cccc(CNC(=O)c2cc3c(=O)n(Cc4ccc(S(=O)(=O)NC5CC5)cc4)c(=O)n(C)c3s2)c1` [Example 367, 3-(4-Cyclopropylsulfamoyl-benzyl)-1-methyl-2,4-dioxo-1,2,3,4-tetrahydro-thieno[2,3-d]pyrimidine-6-carboxylic acid 3-methoxy-benzylamide], 8.25 nM; for `CCC#CCn1c(=O)c2cc(C(=O)NCc3cccc(OC)c3)sc2n(C)c1=O` [Example 291], 120 nM.
Turning to `CCN1CCCC(OC(=O)c2cc3c(=O)n(Cc4ccccc4)c(=O)n(C)c3s2)C1` (stereo not drawn) [Example 186, 3-Benzyl-1-methyl-2,4-dioxo-1.2.3.4-tetrahydro-thieno[2,3-d]pyrimidine-6-carboxylic acid 1-ethyl-piperidin-3-yl ester], the 50% inhibitory concentration (IC50) turned out to be 4500 nM.
For `COC(=O)Nc1cc(Cn2c(=O)c3cc(C(=O)NCc4ccc(OC)cc4)sc3n(C)c2=O)on1` [Example 276] the value was 230 nM.
As for `Cn1c(=O)n(CCCOc2ccccc2)c(=O)c2cc(C(=O)OCc3ccccc3)sc21` [Example 123, 1-Methyl-2,4-dioxo-3-(3-phenoxy-propyl)-1,2,3,4-tetrahydro-thieno[2,3-d]pyrimidine-6-carboxylic acid benzyl ester], the figure is 7800 nM; as for `COc1cccc(COC(=O)c2cc3c(=O)n(Cc4ccccc4)c(=O)n(C)c3s2)c1` [Example 192, 3-Benzyl-1-methyl-2,4-dioxo-1,2,3,4-tetrahydro-thieno[2,3-d]pyrimidine-6-carboxylic acid 3-methoxy-benzyl ester], 3.4 nM.
On to `COc1ccc(CNC(=O)c2cc3c(=O)n(CCNC(=O)c4ccccc4)c(=O)n(C)c3s2)cc1` [Example 272], for which the IC50 came out at 30000 nM.
As for `C=CCCOC(=O)c1cc2c(=O)n(Cc3ccccc3)c(=O)n(C)c2s1` [Example 208, 3-Benzyl-1-methyl-2,4-dioxo-1,2,3,4-tetrahydro-thieno[2,3-d]pyrimidine-6-carboxylic acid but-3-enyl ester], the figure is 100 nM.
